# Test results reported in US20220306695A1, “COMPSTATIN ANALOGUES AND THEIR MEDICAL USES” (priority 2019, published 2022).
# Starred links: 1 amine or outer side, 2 acyl side, 3 side chain; linkers in the order of their positions; H or OH if unused. Positions of bridges follow the written chain, without caps; N, C: chain ends. Non-standard residues stand in square brackets, D forms with d. Residues, ends and D or L forms follow the SMILES beside them. Groups on a side chain read outwards from the residue. *: point of attachment. C20 diacid = O=C(O)CCCCCCCCCCCCCCCCCCC(=O)*; Trp(1-Me) = Cn1cc(C[C@H](N)C(=O)O)c2ccccc21; C18 diacid = O=C(O)CCCCCCCCCCCCCCCCC(=O)*; C16 diacid = O=C(O)CCCCCCCCCCCCCCC(=O)*; γGlu = O=C(O)[C@H](CCC(=O)[*:2])N[*:1]; AEEA = NCCOCCOCC(=O)O; Sar = CNCC(=O)O
# Tested on: classical complement pathway
# Test: In vitro haemolysis assay (inhibition of classical complement pathway)
# Assay type: cell-based, human
# Conditions: Table 3; human serum, sensitized sheep red blood cells; read-out: IC50[nM], in vitro analysis of inhibition of hemolysis
# In short: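 Serially diluted compound (9 points) was preincubated 15 min at room temperature with diluted human serum, titrated per batch to give 70-90% maximal haemolysis, in Tris/casein buffer pH 7.4 with Mg2+/Ca2+. Antibody-sensitized sheep erythrocytes were then added for 30 min at 37° C, and the reaction was stopped with EDTA. Haemolysis was read at A405, with IC50 from 4PL fit.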
row,SMILES,IC50
1,CC[C@H](C)[C@H](NC(C)=O)C(=O)N[C@H]1CSSC[C@@H](C(=O)N[C@H](C(=O)N[C@@H](CCC(=O)O)C(=O)NCC(=O)N[C@@H](CCCCNC(=O)COCCOCCNC(=O)COCCOCCNC(=O)CC[C@H](NC(=O)CCCCCCCCCCCCCCCCC(=O)O)C(=O)O)C(N)=O)[C@@H](C)O)NC(=O)[C@H](CCCNC(=N)N)NC(=O)[C@H](Cc2c[nH]cn2)NC(=O)[C@H](CCC(=O)O)NC(=O)CNC(=O)[C@H](Cc2c[nH]c3ccccc23)NC(=O)[C@H](CC(=O)O)NC(=O)[C@H](CCC(N)=O)NC(=O)[C@H](Cc2c[nH]c3ccccc23)NC(=O)[C@H]([C@@H](C)CC)NC1=O [Compound 96] (Ac-ICIWQDWGEHRCTEGK([AEEA-AEEA-γGlu-C18 diacid])-NH2; disulfide 2-12),< 1000 nM
2,CC[C@H](C)[C@H](NC(C)=O)C(=O)N[C@H]1CSSC[C@@H](C(=O)N[C@H](C(=O)N[C@@H](CCC(=O)O)C(=O)NCC(=O)N[C@@H](CCCCNC(=O)COCCOCCNC(=O)COCCOCCNC(=O)CC[C@H](NC(=O)CCCCCCCCCCCCCCCCCCC(=O)O)C(=O)O)C(N)=O)[C@@H](C)O)NC(=O)[C@H](CCCNC(=N)N)NC(=O)[C@H](Cc2c[nH]cn2)NC(=O)[C@H](CCC(=O)O)NC(=O)CNC(=O)[C@H](Cc2c[nH]c3ccccc23)NC(=O)[C@H](CC(=O)O)NC(=O)[C@H](CCC(N)=O)NC(=O)[C@H](Cc2c[nH]c3ccccc23)NC(=O)[C@H]([C@@H](C)CC)NC1=O [Compound 98] (Ac-ICIWQDWGEHRCTEGK([AEEA-AEEA-γGlu-C20 diacid])-NH2; disulfide 2-12),< 500 nM
3,CC[C@H](C)[C@H](NC(=O)[C@H](C)NC(=O)[C@H](CO)NC(=O)[C@H](CO)NC(=O)[C@H](CCC(=O)O)NC(=O)CCCCCCCCCCCCCCC(=O)O)C(=O)N[C@H]1CSSC[C@@H](C(=O)N[C@H](C(=O)N[C@@H](CCC(=O)O)C(=O)NCC(=O)N[C@@H](CCC(=O)O)C(N)=O)[C@@H](C)O)NC(=O)[C@H](CCCNC(=N)N)NC(=O)[C@H](Cc2c[nH]cn2)NC(=O)[C@H](CCC(=O)O)NC(=O)CNC(=O)[C@H](Cc2c[nH]c3ccccc23)NC(=O)[C@H](CC(=O)O)NC(=O)[C@H](CCC(N)=O)NC(=O)[C@H](Cc2c[nH]c3ccccc23)NC(=O)[C@H]([C@@H](C)CC)NC1=O [Compound 99] ({C16 diacid}-ESSAICIWQDWGEHRCTEGE-NH2; disulfide 6-16),< 250 nM
4,CC[C@H](C)[C@H](NC(=O)[C@H](C)NC(=O)[C@H](CO)NC(=O)CNC(=O)[C@H](CCCCNC(=O)COCCOCCNC(=O)COCCOCCNC(=O)CC[C@H](NC(=O)CCCCCCCCCCCCCCC(=O)O)C(=O)O)NC(C)=O)C(=O)N[C@H]1CSSC[C@@H](C(=O)N[C@H](C(=O)N[C@@H](CCC(=O)O)C(=O)NCC(=O)N[C@@H](CCC(=O)O)C(N)=O)[C@@H](C)O)NC(=O)[C@H](CCCNC(=N)N)NC(=O)[C@H](Cc2c[nH]cn2)NC(=O)[C@H](CCC(=O)O)NC(=O)CNC(=O)[C@H](Cc2c[nH]c3ccccc23)NC(=O)[C@H](CC(=O)O)NC(=O)[C@H](CCC(N)=O)NC(=O)[C@H](Cc2c[nH]c3ccccc23)NC(=O)[C@H]([C@@H](C)CC)NC1=O [Compound 100] (Ac-K([AEEA-AEEA-γGlu-C16 diacid])GSAICIWQDWGEHRCTEGE-NH2; disulfide 6-16),< 500 nM
5,CC[C@H](C)[C@H](NC(=O)[C@H](C)NC(=O)[C@H](CO)NC(=O)CNC(=O)[C@H](CCC(=O)O)NC(C)=O)C(=O)N[C@H]1CSSC[C@@H](C(=O)N[C@H](C(=O)N[C@@H](CCC(=O)O)C(=O)NCC(=O)N[C@@H](CCCCNC(=O)CC[C@H](NC(=O)CCCCCCCCCCCCCCC(=O)O)C(=O)O)C(N)=O)[C@@H](C)O)NC(=O)[C@H](CCCNC(=N)N)NC(=O)[C@H](Cc2c[nH]cn2)NC(=O)[C@H](CCC(=O)O)NC(=O)CNC(=O)[C@H](Cc2c[nH]c3ccccc23)NC(=O)[C@H](CC(=O)O)NC(=O)[C@H](CCC(N)=O)NC(=O)[C@H](Cc2c[nH]c3ccccc23)NC(=O)[C@H]([C@@H](C)CC)NC1=O [Compound 101] (Ac-EGSAICIWQDWGEHRCTEGK([γGlu-C16 diacid])-NH2; disulfide 6-16),< 500 nM
6,CC[C@H](C)[C@@H]1NC(=O)[C@@H](NC(=O)[C@H](Cc2ccc(O)cc2)NC(=O)[C@H](C)NC(=O)[C@H](CO)NC(=O)CNC(=O)[C@H](CCC(=O)O)NC(C)=O)CSSC[C@@H](C(=O)N(C)CC(=O)N[C@@H](CCC(=O)O)C(=O)NCC(=O)N[C@@H](CCCCN)C(=O)N[C@@H](CCCCNC(=O)CC[C@H](NC(=O)CNC(=O)CC[C@H](NC(=O)CCCCCCCCCCCCCCCCC(=O)O)C(=O)O)C(=O)O)C(N)=O)NC(=O)[C@H](CCCNC(=N)N)NC(=O)[C@H](Cc2c[nH]cn2)NC(=O)[C@H](CCC(=O)O)NC(=O)CNC(=O)[C@H](Cc2c[nH]c3ccccc23)NC(=O)[C@H](CC(=O)O)NC(=O)[C@H](CCC(N)=O)NC(=O)[C@H](Cc2cn(C)c3ccccc23)NC1=O [Compound 110] (Ac-EGSAYCI[Trp(1-Me)]QDWGEHRC[Sar]EGKK([γGlu-Gly-γGlu-C18 diacid])-NH2; disulfide 6-16),< 250 nM
7,CC[C@H](C)[C@@H]1NC(=O)[C@@H](NC(=O)[C@H](Cc2ccc(O)cc2)NC(=O)[C@H](CCC(=O)O)NC(=O)[C@H](CO)NC(C)=O)CSSC[C@@H](C(=O)N(C)CC(=O)N[C@@H](CCC(=O)O)C(=O)NCC(=O)N[C@@H](C)C(=O)N[C@@H](CCCCNC(=O)CC[C@H](NC(=O)CNC(=O)CC[C@H](NC(=O)CCCCCCCCCCCCCCCCC(=O)O)C(=O)O)C(=O)O)C(N)=O)NC(=O)[C@H](CCCNC(=N)N)NC(=O)[C@H](Cc2c[nH]cn2)NC(=O)[C@H](CCC(=O)O)NC(=O)CNC(=O)[C@H](Cc2c[nH]c3ccccc23)NC(=O)[C@H](CC(=O)O)NC(=O)[C@H](CCC(N)=O)NC(=O)[C@H](Cc2cn(C)c3ccccc23)NC1=O [Compound 112] (Ac-SEYCI[Trp(1-Me)]QDWGEHRC[Sar]EGAK([γGlu-Gly-γGlu-C18 diacid])-NH2; disulfide 4-14),< 500 nM
8,CC[C@H](C)[C@@H]1NC(=O)[C@@H](NC(=O)[C@H](Cc2ccc(O)cc2)NC(=O)[C@H](CCC(=O)O)NC(=O)CNC(=O)[C@H](CO)NC(=O)[C@H](C)NC(C)=O)CSSC[C@@H](C(=O)N(C)CC(=O)N[C@@H](CCC(=O)O)C(=O)NCC(=O)N[C@@H](CCC(=O)O)C(=O)N[C@@H](CCCCNC(=O)CC[C@H](NC(=O)CNC(=O)CC[C@H](NC(=O)CCCCCCCCCCCCCCCCC(=O)O)C(=O)O)C(=O)O)C(N)=O)NC(=O)[C@H](CCCNC(=N)N)NC(=O)[C@H](Cc2c[nH]cn2)NC(=O)[C@H](CCC(=O)O)NC(=O)CNC(=O)[C@H](Cc2c[nH]c3ccccc23)NC(=O)[C@H](CC(=O)O)NC(=O)[C@H](CCC(N)=O)NC(=O)[C@H](Cc2cn(C)c3ccccc23)NC1=O [Compound 113] (Ac-ASGEYCI[Trp(1-Me)]QDWGEHRC[Sar]EGEK([γGlu-Gly-γGlu-C18 diacid])-NH2; disulfide 6-16),< 500 nM
9,CC[C@H](C)[C@@H]1NC(=O)[C@@H](NC(=O)[C@H](Cc2ccc(O)cc2)NC(=O)[C@H](CCC(=O)O)NC(=O)[C@H](CO)NC(C)=O)CSSC[C@@H](C(=O)N(C)CC(=O)N[C@@H](CCC(=O)O)C(=O)NCC(=O)N[C@@H](CCC(=O)O)C(=O)NCCOCCOCC(=O)NCCOCCOCC(=O)N[C@@H](CCCCNC(=O)CC[C@H](NC(=O)CNC(=O)CC[C@H](NC(=O)CCCCCCCCCCCCCCCCC(=O)O)C(=O)O)C(=O)O)C(N)=O)NC(=O)[C@H](CCCNC(=N)N)NC(=O)[C@H](Cc2c[nH]cn2)NC(=O)[C@H](CCC(=O)O)NC(=O)CNC(=O)[C@H](Cc2c[nH]c3ccccc23)NC(=O)[C@H](CC(=O)O)NC(=O)[C@H](CCC(N)=O)NC(=O)[C@H](Cc2cn(C)c3ccccc23)NC1=O [Compound 117] (Ac-SEYCI[Trp(1-Me)]QDWGEHRC[Sar]EGE[AEEA][AEEA]K([γGlu-Gly-γGlu-C18 diacid])-NH2; disulfide 4-14),< 250 nM
10,CC[C@H](C)[C@@H]1NC(=O)[C@@H](NC(=O)[C@H](Cc2ccc(O)cc2)NC(=O)[C@H](CCC(=O)O)NC(=O)[C@H](CO)NC(C)=O)CSSC[C@@H](C(=O)N(C)CC(=O)N[C@@H](CCC(=O)O)C(=O)NCC(=O)N[C@@H](CCC(=O)O)C(=O)NCCOCCOCC(=O)NCCOCCOCC(=O)N[C@@H](CCCCNC(=O)CC[C@H](NC(=O)CNC(=O)CC[C@H](NC(=O)CCCCCCCCCCCCCCCCC(=O)O)C(=O)O)C(=O)O)C(N)=O)NC(=O)[C@H](CCCNC(=N)N)NC(=O)[C@H](Cc2c[nH]cn2)NC(=O)[C@H](CCC(=O)O)NC(=O)CNC(=O)[C@H](Cc2c[nH]c3ccccc23)NC(=O)[C@H](CCC(=O)O)NC(=O)[C@H](CCC(N)=O)NC(=O)[C@H](Cc2cn(C)c3ccccc23)NC1=O [Compound 125] (Ac-SEYCI[Trp(1-Me)]QEWGEHRC[Sar]EGE[AEEA][AEEA]K([γGlu-Gly-γGlu-C18 diacid])-NH2; disulfide 4-14),< 500 nM
11,CC[C@H](C)[C@@H]1NC(=O)[C@@H](NC(=O)[C@H](Cc2ccccc2)NC(=O)[C@H](CCC(=O)O)NC(=O)[C@H](CO)NC(C)=O)CSSC[C@@H](C(=O)N(C)CC(=O)N[C@@H](CCC(=O)O)C(=O)NCC(=O)N[C@@H](CCC(=O)O)C(=O)NCCOCCOCC(=O)NCCOCCOCC(=O)N[C@@H](CCCCNC(=O)CC[C@H](NC(=O)CNC(=O)CC[C@H](NC(=O)CCCCCCCCCCCCCCC(=O)O)C(=O)O)C(=O)O)C(N)=O)NC(=O)[C@H](CCCNC(=N)N)NC(=O)[C@H](Cc2c[nH]cn2)NC(=O)[C@H](CCC(=O)O)NC(=O)CNC(=O)[C@H](Cc2c[nH]c3ccccc23)NC(=O)[C@H](CC(=O)O)NC(=O)[C@H](CCC(N)=O)NC(=O)[C@H](Cc2cn(C)c3ccccc23)NC1=O [Compound 127] (Ac-SEFCI[Trp(1-Me)]QDWGEHRC[Sar]EGE[AEEA][AEEA]K([γGlu-Gly-γGlu-C16 diacid])-NH2; disulfide 4-14),< 100 nM
